Test results: patent publication US5677324A, “Benzopyranes as potassium channel openers” (Pfizer Inc., priority 1993, dated 1997)

Test system: guinea pig tracheal ring preparations
Assay: in vitro relaxation of guinea pig tracheal ring preparations (smooth muscle relaxant activity)
Assay type: cell-based
Conditions: Cavia porcellus; relaxation of KCl (20 mM)-contracted tracheal strips, Krebs solution, 37° C.; reversal to pretreatment base line = 100 percent relaxation
Text: The compounds of the formula (I) have smooth muscle relaxant activity since they are able to open potassium channels in such tissue. They can be tested for smooth muscle relaxant activity by a method involving measuring the in vitro relaxation of guinea pig tracheal ring preparations as follows:
Male guinea pigs (500-600 g) were killed by a blow to the head and exsanguinated. The trachea was removed, placed in Krebs solution and cleaned. The trachea was slit through the cartilage along it's longitudinal axis and strips consisting of four adjacent cartilage rings were prepared. The strips were each placed in a water-jacketed organ bath (37° C.) containing Krebs solution and tied to a force-displacementtransducer for the measurement of isometric tension responses. The tissues were equilibrated for 60 minutes under a resting load of 1 g and washed every 15 minutes before the start of each experiment.
The composition of the Krebs solution was as follows (millimoles):- NaCl (119); KCl (4.7); NaHCO3 (25); KH2 PO4 (1.2); MgSO4 (1.2); CaCl2 (2.5); glucose (11), and indomethacin (2.8 μM) was added to remove the influence of the endogenous prostanoids. The solution was gassed with 95% O2 /5% CO2 and the temperature was kept constant at 37° C.
After the equilibration period a priming dose of KCl (20 mM) was added to each tissue bath and after a further 20 minutes the tissue was washed. After a further 30 minutes KCl (20 mM) was added to contract each tissue. The relaxant action of a compound of the formula (I) was examined when the maintained contractile response had stabilized. The compounds can be added cumulatively (10^-8 -10^-5 […]) at 5 minute intervals.
The reversal to pretreatment base line was taken as 100 percent relaxation in these studies and concentration-relaxation curves were constructed in order to obtain IC50 values for potency.
A selection of the compounds of the preceding Examples was tested for smooth muscle relaxant activity by the method involving measuring the in vitro relaxation of guinea pig tracheal ring preparations as described on pages 31 and 32 of the description.

Row | SMILES | IC50
1 | CC1(C)Oc2ccc(-c3nnnn3CCc3ccccc3)cc2[C@@H](N2CCCCC2=O)[C@@H]1O (relative stereo) [Example 35] | 40 nM
2 | Cn1nnnc1-c1ccc2c(c1)[C@@H](Oc1ccc(=O)[nH]n1)[C@](C)(O)C(C)(C)O2 [Example 3] | 150 nM
3 | Cn1nnnc1-c1ccc2c(c1)[C@@H](N1CCCCC1=O)[C@H](O)C(C)(C)O2 (relative stereo) [Example 36] | 68 nM
4 | CC1(C)Oc2ccc(-c3nnnn3CCc3ccccc3)cc2C(Oc2ccc(=O)[nH]n2)C1(C)O (centres unmarked) [Example 7] | 440 nM
5 | CCOC(=O)CCCCn1nnnc1-c1ccc2c(c1)[C@@H](Oc1ccc(O)nn1)[C@](C)(O)C(C)(C)O2 [Example 11, (3S,4R)-3,4-dihydro-6-(1-[4-ethoxycarbonylbut-1-yl]-1H-tetrazol-5-yl)-3-hydroxy-4-(3-hydroxypyridazin-6-yl)oxy-2,2,3-trimethyl-2H-benzo[b]pyran] | 120 nM
